Data from the supplement of paper PMC10331698.
± gives the standard deviation of the averaged measurements.

Experiments:
Assay in all cases: level (log10 ratio to DMSO vehicle control); higher = higher biomarker level / cell amount than vehicle control
[1] = compound: C=C(C)C(=O)OCCC(F)(F)C(F)(F)C(F)(F)C(F)(F)C(F)(F)C(F)(F)C(F)(F)C(F)(F)F [8:2 Fluorotelomer methacrylate] (in DMSO)
Procedure: (§1)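 BioMAP Diversity Plus panel of 12 human primary cell co-culture systems (3C, 4H, LPS, SAg, BT, BF4T, BE3C, CASM3C, HDF3CGF, KF3CT, MyoF, Mphg). Compounds were added 1 h before stimulation and left for 24 h (MyoF 48 h; BT 72 h for soluble read-outs or 6 d for IgG). Biomarkers were read by ELISA, cytotoxicity by SRB, PBMC viability and proliferation by Alamar Blue. Each well value was divided by the mean of 8 DMSO control wells on the same plate and log10 transformed; duplicate blinded samples were tested at 4 concentrations.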

[2] = compound: CCOC(=O)CC(=O)C(F)(F)C(F)(F)F [Ethyl pentafluoropropionyl acetate] (in DMSO)
Procedure: as §1

Octafluoroadipic acid = compound: O=C(O)C(F)(F)C(F)(F)C(F)(F)C(F)(F)C(=O)O [Octafluoroadipic acid] (in DMSO)
Procedure: as §1

[3] = compound: O=C(O)C(F)(F)OC(F)(F)C(F)(F)OC(F)(F)C(F)(F)OC(F)(F)C(F)(F)C(F)(F)C(F)(F)F [Perfluoro-3,6,9-trioxatridecanoic acid] (in DMSO); conditions: 6700 nM
Procedure: as §1

[4] = compound: O=C(O)CCC(F)(C(F)(F)F)C(F)(F)F [4,4-bis(Trifluoromethyl)-4-fluoropropanoic acid] (in DMSO)
Procedure: as §1

[5] = compound: O=S(=O)(O)C(F)(F)C(F)(F)C(F)(F)C(F)(F)C(F)(F)C(F)(F)C(F)(F)F [Perfluoroheptanesulfonic acid] (in DMSO)
Procedure: as §1

[6] = compound: OCC(F)(F)C(F)(F)C(F)(F)C(F)F [1H,1H,5H-Perfluoropentanol] (in DMSO)
Procedure: as §1

Row | Test System | level (log10) ([1]; 6700 nM) | level (log10) ([1]; 20000 nM) | level (log10) ([2]; 6700 nM) | level (log10) ([2]; 20000 nM) | level (log10) ([2]; 60000 nM) | level (log10) (Octafluoroadipic acid; 6700 nM) | level (log10) (Octafluoroadipic acid; 20000 nM) | level (log10) (Octafluoroadipic acid; 60000 nM) | level (log10) [3] | level (log10) ([4]; 6700 nM) | level (log10) ([4]; 20000 nM) | level (log10) ([4]; 60000 nM) | level (log10) ([5]; 1500 nM) | level (log10) ([5]; 4400 nM) | level (log10) ([5]; 13000 nM) | level (log10) ([5]; 40000 nM) | level (log10) ([6]; 6700 nM) | level (log10) ([6]; 20000 nM) | level (log10) ([6]; 60000 nM)
1 | 3C:CD87/uPAR | 0.046 ± 0.018 | 0.049 ± 0.013 | 0.011 ± 0.0042 | 0.0075 ± 0.00071 | -0.003 ± 0.011 | -0.023 ± 0.0057 | -0.0175 ± 0.025 | -0.014 ± 0.021 | 0.0095 ± 0.028 | 0.051 ± 0.0057 | 0.0265 ± 0.0078 | 0.0295 ± 0.044 | 0.0655 ± 0.0078 | 0.0535 ± 0.021 | 0.0485 ± 0.044 | 0.0565 ± 0.064 | -0.0135 ± 0.019 | 0.0015 ± 0.011 | -0.0095 ± 0.013
2 | 3C:CXCL8/IL-8 | -0.005 ± 0.017 | 0.0305 ± 0.012 | -0.0105 ± 0.0092 | -0.006 ± 0.0071 | 0.022 ± 0.031 | 0.001 ± 0.024 | -0.0095 ± 0.005 | 0.0215 ± 0.025 | -0.003 ± 0.027 | 0.0215 ± 0.039 | 0.014 ± 0.055 | 0.0285 ± 0.054 | 0.007 ± 0.086 | -0.0115 ± 0.013 | 0.0015 ± 0.03 | 0.055 ± 0.054 | 0.0115 ± 0.023 | 0.0035 ± 0.03 | 0.0545 ± 0.063
3 | 3C:CXCL9/MIG | -0.002 ± 0.0028 | 0.0055 ± 0.0035 | 0.001 ± 0.0028 | -0.0015 ± 0.0092 | 0.0025 ± 0.0078 | -0.002 ± 0.0028 | -0.0095 ± 0.015 | 0.006 ± 0.0085 | 0.0115 ± 0.00071 | 0.006 ± 0.0071 | -0.0075 ± 0.0035 | 0.0015 ± 0.0064 | 0.006 ± 0.0014 | -0.006 ± 0.0071 | 0 ± 0.0057 | 0.0075 ± 0.011 | 0 ± 0.0057 | -0.0035 ± 0.0064 | 0.0105 ± 0.00071
4 | 3C:HLA-DR | -0.0035 ± 0.035 | 0.0115 ± 0.028 | 0.019 ± 0.0099 | 0.0125 ± 0.054 | 0.01 ± 0.047 | -0.007 ± 0.0099 | -0.004 ± 0.021 | 0.0035 ± 0.0078 | -0.018 ± 0.04 | -0.0125 ± 0.023 | -0.0085 ± 0.012 | -0.0065 ± 0.0035 | 0.0125 ± 0.0064 | -0.0075 ± 0.0092 | -0.005 ± 0.024 | 0.008 ± 0.016 | -0.02 ± 0.0028 | -0.0075 ± 0.025 | 0.0385 ± 0.023
5 | 3C:Proliferation | -0.0315 ± 0.005 | -0.07 ± 0.034 | -0.0145 ± 0.043 | -0.033 ± 0.011 | -0.0135 ± 0.026 | -0.0705 ± 0.005 | 0.016 ± 0.013 | -0.007 ± 0.03 | 0.0425 ± 0.016 | -0.05 ± 0.051 | -0.015 ± 0.058 | 0.0345 ± 0.03 | -0.0785 ± 0.13 | -0.0425 ± 0.044 | 0.0015 ± 0.022 | -0.0275 ± 0.021 | -0.0045 ± 0.066 | 0.005 ± 0.0071 | -0.033 ± 0.093
6 | 3C:SRB | -0.0205 ± 0.0035 | -0.01 ± 0.021 | 0.006 ± 0.0085 | 0.007 ± 0.0085 | 0.01 ± 0.034 | -0.007 ± 0.016 | -0.0045 ± 0.011 | -0.016 ± 0.0028 | -0.002 ± 0.014 | -0.001 ± 0.0057 | 0.0045 ± 0.019 | 0.0125 ± 0.0078 | -0.0295 ± 0.023 | -0.0275 ± 0.0078 | -0.0065 ± 0.016 | -0.0125 ± 0.023 | -0.011 | -0.006 ± 0.03 | -0.015 ± 0.011
7 | 4H:CCL2/MCP-1 | -0.0075 ± 0.053 | 0.027 ± 0.034 | -0.0235 ± 0.029 | -0.0455 ± 0.064 | -0.008 ± 0.1 | -0.03 ± 0.018 | -0.0365 ± 0.025 | 0.03 ± 0.024 | -0.029 ± 0.0099 | 0.016 ± 0.024 | 0.0275 ± 0.03 | 0.023 ± 0.047 | -0.0125 ± 0.094 | 0.0165 ± 0.081 | 0.03 ± 0.05 | 0.0135 ± 0.012 | -0.0265 ± 0.046 | -0.0115 ± 0.033 | 0.039 ± 0.055
8 | 4H:CCL26/Eotaxin-3 | 0.0035 ± 0.037 | 0 ± 0.02 | -0.007 ± 0.024 | 0.006 ± 0.0085 | -0.019 ± 0.018 | 0.022 ± 0.016 | 0.0185 ± 0.0092 | 0.016 ± 0.027 | -0.007 ± 0.038 | -0.0225 ± 0.0064 | 0.006 ± 0.033 | -0.0015 ± 0.049 | -0.006 ± 0.025 | -0.061 ± 0.035 | -0.0335 ± 0.011 | -0.0665 ± 0.022 | -0.008 ± 0.011 | 0.008 ± 0.0085 | -0.005 ± 0.0071
9 | 4H:CD62P/P-selectin | -0.02 ± 0.02 | -0.0375 ± 0.0035 | 0.005 | -0.012 ± 0.038 | 0.009 ± 0.013 | -0.0075 ± 0.043 | 0.0065 ± 0.042 | -0.007 ± 0.059 | 0.033 ± 0.023 | -0.0155 ± 0.022 | -0.032 ± 0.031 | 0.005 ± 0.086 | -0.0225 ± 0.043 | -0.0165 ± 0.005 | -0.002 ± 0.02 | 0.0305 ± 0.022 | -0.0245 ± 0.0021 | 0.0205 ± 0.061 | 0.027 ± 0.038
10 | 4H:CD87/uPAR | -0.0325 ± 0.0035 | -0.0345 ± 0.042 | -0.0055 ± 0.0064 | -0.0585 ± 0.07 | -0.0565 ± 0.13 | 0.04 ± 0.0071 | 0.039 ± 0.011 | 0.0345 ± 0.0064 | 0.0145 ± 0.03 | -0.0095 ± 0.056 | 0.0235 ± 0.035 | 0.0275 ± 0.067 | -0.0135 ± 0.032 | 0.0325 ± 0.00071 | 0.0455 ± 0.005 | 0.0355 ± 0.029 | -0.0225 ± 0.0092 | 0.0025 ± 0.019 | 0.007 ± 0.034
11 | 4H:CD106/VCAM-1 | -0.035 ± 0.018 | -0.0485 ± 0.0064 | -0.003 ± 0.034 | 0.03 ± 0.018 | 0.0215 ± 0.013 | -0.003 ± 0.0028 | -0.007 ± 0.018 | -0.007 ± 0.017 | -0.023 ± 0.0085 | -0.014 ± 0.0042 | -0.004 | -0.0205 ± 0.022 | -0.002 ± 0.062 | -0.029 ± 0.017 | -0.0345 ± 0.019 | -0.0295 ± 0.03 | -0.0075 ± 0.0035 | 0.0115 ± 0.0021 | 0.018 ± 0.021
12 | 4H:SRB | -0.0205 ± 0.028 | -0.0105 ± 0.042 | 0.0055 ± 0.005 | 0.0045 ± 0.012 | 0.0015 ± 0.028 | -0.002 ± 0.013 | 0.0025 ± 0.00071 | -0.0105 ± 0.0035 | 0.0035 ± 0.0092 | -0.008 | -0.0125 ± 0.011 | 0.014 ± 0.02 | -0.0185 ± 0.012 | -0.007 ± 0.014 | -0.0055 ± 0.013 | -0.0065 ± 0.018 | -0.003 ± 0.0014 | 0.011 ± 0.0042 | 0.0065 ± 0.005
13 | 4H:VEGFR2 | 0.028 ± 0.023 | 0.015 ± 0.05 | -0.0375 ± 0.036 | -0.0265 ± 0.06 | -0.022 ± 0.15 | 0.0205 ± 0.029 | 0.0085 ± 0.05 | 0.0155 ± 0.042 | -0.0515 ± 0.047 | 0.0265 ± 0.054 | 0.0195 ± 0.044 | 0.03 ± 0.045 | 0.023 ± 0.041 | -0.013 ± 0.0085 | -0.005 ± 0.044 | 0.043 ± 0.1 | -0.021 ± 0.028 | -0.0215 ± 0.0021 | 0.0395 ± 0.073
14 | BE3C:CD54/ICAM-1 | -0.012 ± 0.018 | 0.002 ± 0.061 | 0.0175 ± 0.011 | 0.0185 ± 0.018 | 0.006 ± 0.0042 | -0.0085 ± 0.0078 | -0.0045 ± 0.013 | 0.01 ± 0.031 | -0.688 ± 0.018 | -0.007 | -0.019 ± 0.014 | -0.002 ± 0.0099 | 0.006 ± 0.027 | 0.0015 ± 0.022 | -0.0025 ± 0.036 | 0.0055 ± 0.052 | 0.0095 ± 0.042 | 0.02 ± 0.0014 | 0.0175 ± 0.028
15 | BE3C:CD87/uPAR | -0.0135 ± 0.023 | 0.0015 ± 0.036 | 0.0145 ± 0.03 | -0.0045 ± 0.023 | 0.0065 ± 0.03 | -0.0115 ± 0.00071 | 0.0035 ± 0.00071 | 0.0125 ± 0.018 | -0.48 ± 0.05 | 0.0005 ± 0.028 | -0.004 ± 0.044 | -0.01 ± 0.0028 | 0.017 ± 0.024 | -0.0045 ± 0.015 | -0.0065 ± 0.03 | 0.05 ± 0.069 | -0.012 ± 0.0085 | -0.01 ± 0.0071 | 0 ± 0.027
